In US9931320B2, “Parasiticidal oral veterinary compositions comprising systemically-acting active agents, methods and uses thereof” (MERIAL INC., priority 2012, dated 2018):

Key:
Amblyomma americanum = assay: Long lasting efficacy against A. americanum on dogs (Example 6, Table 52); type: in vivo
Protocol: Forty two beagles were allotted to seven groups of six dogs each. Groups 1 and 2 served as untreated controls. Groups 3, 4 and 5 were each treated on Day 0 with three different compositions of the invention described in Tables 30, 31 and 32, respectively, containing Compound A in an amount to deliver a dose of about 20 mg/kg of body weight. Similarly, on Day 0, Groups 6 and 7 were each treated with the compositions described in Tables 30 and 32, respectively, containing Compound A to deliver a dose of about 20 mg/kg of body weight.
Dogs in Groups 1, 3, 4 and 5 were infested with approximately 50 A. americanum and dogs in Groups 2, 6 and 7 were infested with approximately 50 D. variabilis on Days −1, 42, 56, 70, 77, 84, 91 and 98. Dogs in Groups 1, 2, 3, 6 and 7 were also infested on Day 105. Ticks were counted upon removal at approximately 48 hours post treatment on Day 2 and 48 hours post infestation on Days 44, 58, 72, 79, 86, 93, 100 and 107. Tables 52 and 53 below show the exceptional long-lasting efficacy of the inventive compositions against A. americanum and D. variabilis.

Ixodes holocyclus = assay: Efficacy against induced Ixodes holocyclus infestations on dogs (Example 5)
[1] = tested on: ticks (Dermacentor variabilis); assay: Efficacy of soft chews against induced tick infestations on dogs (Example 2); type: in vivo; conditions: for % Reduction Ticks: soft chew of Table 6, once on Day 0, dogs; for Percent reduction against ticks: Table 6 soft chew, treated once on Day 0, dogs
Protocol: Sixteen beagles were studied to determine the effectiveness of a soft chewable veterinary composition comprising Compound A against induced infestations of Dermacentor variabilis and Ctenocephalides felis.
Four Treatment Groups containing four dogs each were formed. Dogs in Group 1 were untreated. […] All dogs were treated once on Day 0.
All dogs were infested with approximately 100 C. felis on Days −1, 8, 15, 22, 29, 35, 43, 57 and 71. All dogs were also infested with approximately 50 D. variabilis on Days −1, 7, 14, 21, 28, 34 and 42. Both ticks and fleas were counted upon removal on Days 2, 9, 16, 23, 30, 36 and 44. Fleas were counted upon removal for all Treatment Groups on Days 58 and 72.

[2] = tested on: Amblyomma americanum (lone star tick); assay: Efficacy against induced Amblyomma americanum infestations on dogs (Example 4); type: in vivo; conditions: at least approx. 2.5 mg/kg once on Day 0
Protocol: Two treatment groups were formed, each containing eight dogs each. Dogs in Group 1 were untreated. Dogs in Group 2 were treated once on Day 0 with soft chewable compositions containing Compound A at a concentration to deliver a dose of at least approximately 2.5 mg/kg.
Ticks were counted on Days 2, 9, 16, 23, 30 and 38. The percent efficacy of the treated group versus the untreated control group 48 hours after infestation exceeded 91% at Days 2, 9, 16 and 23, with percent efficacy values of 99.2, 98.7, 99.4 and 91.7, respectively (p-values≤0.001). At Day 38 the percent efficacy was measured at 89.7%.

[3] = tested on: fleas (Ctenocephalides felis); assay: Efficacy and speed of kill against fleas on dogs (Example 3); type: in vivo
Protocol: Three Treatment Groups were formed. Dogs in Group 1 were untreated. […] Groups 1 and 2 contained 12 dogs each and Group 3 contained 4 dogs. All dogs were treated once on Day 0.
All dogs were infested with approximately 75 C. felis on Days 0 and 7. The dogs in Group 3 and dogs in pre-allocated subgroups in Groups 1 and 2 were also infested with approximately 75 C. felis on Days 14, 21 and 28. Fleas were counted upon removal from selected subjects at 30 minutes, 4 hours, and 12 hours after treatment or infestation on Days 0 and 7. On Days 14, 21 and 28, fleas were counted upon removal from selected subjects at 8 and 12 hours after infestation. […] Following infestation at later timepoints, the composition started working within 30 minutes, and by 12 hours after infestation on Days 7, 14 and 21, efficacy of >98% was achieved.

O=C(CNC(=O)c1ccc(C2=NOC(c3cc(Cl)cc(C(F)(F)F)c3)(C(F)(F)F)C2)c2ccccc12)NCC(F)(F)F (centres unmarked) [Compound A, 4-[5-[3-chloro-5-(trifluoromethyl)phenyl]-4,5-dihydro-5-(trifluoromethyl)-3-isoxazolyl]-N-[2-oxo-2-[(2,2,2-trifluoroethyl)amino]ethyl]-1-naphthalenecarboxamide]
% Reduction Ticks (Amblyomma americanum; Group 3, composition of Table 30, about 20 mg/kg once on Day 0, dogs, Day 2): 100.0%
% Reduction Ticks (Amblyomma americanum; Group 3, composition of Table 30, about 20 mg/kg once on Day 0, dogs, Day 44): 98.4%
% Reduction Ticks (Amblyomma americanum; Group 3, composition of Table 30, about 20 mg/kg once on Day 0, dogs, Day 58): 98.8%
% Reduction Ticks (Amblyomma americanum; Group 3, composition of Table 30, about 20 mg/kg once on Day 0, dogs, Day 72): 99.5%
% Reduction Ticks (Amblyomma americanum; Group 3, composition of Table 30, about 20 mg/kg once on Day 0, dogs, Day 79): 94.4%
% Reduction Ticks (Amblyomma americanum; Group 3, composition of Table 30, about 20 mg/kg once on Day 0, dogs, Day 86): 98.9%
% Reduction Ticks (Amblyomma americanum; Group 3, composition of Table 30, about 20 mg/kg once on Day 0, dogs, Day 93): 99.5%
% Reduction Ticks (Amblyomma americanum; Group 3, composition of Table 30, about 20 mg/kg once on Day 0, dogs, Day 100): 95.6%
% Reduction Ticks (Amblyomma americanum; Group 3, composition of Table 30, about 20 mg/kg once on Day 0, dogs, Day 107): 93.4%
% Reduction Ticks (Amblyomma americanum; Group 4, composition of Table 31, about 20 mg/kg once on Day 0, dogs, Day 2): 100.0%
% Reduction Ticks (Amblyomma americanum; Group 4, composition of Table 31, about 20 mg/kg once on Day 0, dogs, Day 44): 99.4%
% Reduction Ticks (Amblyomma americanum; Group 4, composition of Table 31, about 20 mg/kg once on Day 0, dogs, Day 58): 99.4%
% Reduction Ticks (Amblyomma americanum; Group 4, composition of Table 31, about 20 mg/kg once on Day 0, dogs, Day 72): 97.7%
% Reduction Ticks (Amblyomma americanum; Group 4, composition of Table 31, about 20 mg/kg once on Day 0, dogs, Day 79): 88.6%
% Reduction Ticks (Amblyomma americanum; Group 4, composition of Table 31, about 20 mg/kg once on Day 0, dogs, Day 86): 97.5%
% Reduction Ticks (Amblyomma americanum; Group 4, composition of Table 31, about 20 mg/kg once on Day 0, dogs, Day 93): 97.7%
% Reduction Ticks (Amblyomma americanum; Group 4, composition of Table 31, about 20 mg/kg once on Day 0, dogs, Day 100): 90.9%
% Reduction Ticks (Amblyomma americanum; Group 5, composition of Table 32, about 20 mg/kg once on Day 0, dogs, Day 2): 100.0%
% Reduction Ticks (Amblyomma americanum; Group 5, composition of Table 32, about 20 mg/kg once on Day 0, dogs, Day 44): 100.0%
% Reduction Ticks (Amblyomma americanum; Group 5, composition of Table 32, about 20 mg/kg once on Day 0, dogs, Day 58): 99.5%
% Reduction Ticks (Amblyomma americanum; Group 5, composition of Table 32, about 20 mg/kg once on Day 0, dogs, Day 72): 100.0%
% Reduction Ticks (Amblyomma americanum; Group 5, composition of Table 32, about 20 mg/kg once on Day 0, dogs, Day 79): 98.8%
% Reduction Ticks (Amblyomma americanum; Group 5, composition of Table 32, about 20 mg/kg once on Day 0, dogs, Day 86): 97.8%
% Reduction Ticks (Amblyomma americanum; Group 5, composition of Table 32, about 20 mg/kg once on Day 0, dogs, Day 93): 98.2%
% Reduction Ticks (Amblyomma americanum; Group 5, composition of Table 32, about 20 mg/kg once on Day 0, dogs, Day 100): 87.8%
Percent efficacy (Ixodes holocyclus; 24 hours post infestation on Days 1, 8, 15 and 22, Table 10 soft chew, at least 2.5 mg/kg once on Day 0): at least 95.8%
Percent efficacy (Ixodes holocyclus; 48 hours post infestation, all time points measured, once on Day 0, at least 2.5 mg/kg Compound A (Table 10), combination plus at least 0.5 mg/kg milbemycin oxime (Table 13)): at least 98.7%
Percent efficacy (Ixodes holocyclus; 72 hours post infestation, all time points measured, once on Day 0, at least 2.5 mg/kg Compound A (Table 10), combination plus at least 0.5 mg/kg milbemycin oxime (Table 13)): at least 99.2%
% Reduction Ticks ([1]; Group 2, approximately 1.5 mg/kg, Day 2): 100.0%
% Reduction Ticks ([1]; Group 2, approximately 1.5 mg/kg, Day 9): 99.2%
% Reduction Ticks ([1]; Group 2, approximately 1.5 mg/kg, Day 16): 100.0%
% Reduction Ticks ([1]; Group 2, approximately 1.5 mg/kg, Day 23): 92.1%
% Reduction Ticks ([1]; Group 2, approximately 1.5 mg/kg, Day 30): 99.5%
% Reduction Ticks ([1]; Group 2, approximately 1.5 mg/kg, Day 36): 82.4%
% Reduction Ticks ([1]; Group 2, approximately 1.5 mg/kg, Day 44): 68.3%
% Reduction Ticks ([1]; Group 3, approximately 2.5 mg/kg, Day 2): 100.0%
% Reduction Ticks ([1]; Group 3, approximately 2.5 mg/kg, Day 9): 100.0%
% Reduction Ticks ([1]; Group 3, approximately 2.5 mg/kg, Day 16): 99.1%
% Reduction Ticks ([1]; Group 3, approximately 2.5 mg/kg, Day 23): 97.2%
% Reduction Ticks ([1]; Group 3, approximately 2.5 mg/kg, Day 30): 94.3%
% Reduction Ticks ([1]; Group 3, approximately 2.5 mg/kg, Day 36): 96.9%
% Reduction Ticks ([1]; Group 3, approximately 2.5 mg/kg, Day 44): 88.1%
% Reduction Ticks ([1]; Group 4, approximately 3.5 mg/kg, Day 2): 100.0%
% Reduction Ticks ([1]; Group 4, approximately 3.5 mg/kg, Day 9): 100.0%
% Reduction Ticks ([1]; Group 4, approximately 3.5 mg/kg, Day 16): 99.5%
% Reduction Ticks ([1]; Group 4, approximately 3.5 mg/kg, Day 23): 100.0%
% Reduction Ticks ([1]; Group 4, approximately 3.5 mg/kg, Day 30): 98.1%
% Reduction Ticks ([1]; Group 4, approximately 3.5 mg/kg, Day 36): 91.9%
% Reduction Ticks ([1]; Group 4, approximately 3.5 mg/kg, Day 44): 84.7%
Percent reduction against ticks ([1]; through Day 36, Groups 3 and 4): > 90%
Percent reduction against ticks ([1]; through and including Day 30, all treatment groups (approx. 1.5, 2.5 or 3.5 mg/kg)): > 90%
Percent efficacy versus untreated control group ([2]; 48 hours after infestation, at Days 2, 9, 16 and 23, Table 10 soft chew): exceeded 91%
Percent efficacy versus untreated control group ([2]; Day 2, 48 hours after infestation, Table 10 soft chew): 99.2%
Percent efficacy versus untreated control group ([2]; Day 9, 48 hours after infestation, Table 10 soft chew): 98.7%
Percent efficacy versus untreated control group ([2]; Day 16, 48 hours after infestation, Table 10 soft chew): 99.4%
Percent efficacy versus untreated control group ([2]; Day 23, 48 hours after infestation, Table 10 soft chew): 91.7%
Percent efficacy versus untreated control group ([2]; Day 38, Table 10 soft chew): 89.7%
Duration of excellent control of Amblyomma americanum ([2]; Table 10 soft chew): > 30 days
Flea efficacy ([3]; 12 hours after administration on Day 0, soft chews of Tables 7 and 8, approx. 2.5 mg/kg): 100%
Time until compositions started working against fleas ([3]; after treatment on Day 0, approx. 2.5 mg/kg): ≤ 30 min
Flea efficacy ([3]; by 12 hours after infestation on Days 7, 14 and 21, soft chews of Tables 7 and 8, approx. 2.5 mg/kg once on Day 0): > 98%
Time until composition started working against fleas ([3]; following infestation at later timepoints, approx. 2.5 mg/kg once on Day 0): ≤ 30 min
